From patent publication US20250059124A1, “METHOD FOR STORING REDUCED COENZYME Q10” (KANEKA CORPORATION, priority 2021, published 2025)

Experiments:
[1] = Oxidation stability on storage (QH residual rate by HPLC); assay type: physicochemical
Experimental: The weight ratio of reduced coenzyme Q10 to total coenzyme Q10 (namely, reduced coenzyme Q10/(oxidized coenzyme Q10+reduced coenzyme Q10)) is defined as “QH ratio”. The QH ratio was determined by the following HPLC analysis. For the evaluation of oxidation stability, a rate of the change in the QH ratio at the end of the evaluation from that at the beginning of the evaluation was defined as “QH residual rate”, and the QH residual rate determined from the following expression was used as a measure of oxidation stability.
QH residual rate (%)=100×QH ratio at the end of the evaluation/QH ratio at the beginning of the evaluation
• Column: SYMMETRY C18 (manufactured by Waters); 250 mm (length), 4.6 mm (inner diameter) • Mobile phase: C2H5OH: CH3OH=4:3 (v:v) • Detection wavelength: 210 nm • Flow rate: 1 mL/min

[2] = Water activity measurement (AquaLab Series 4TE); assay type: physicochemical; details: water activity in packaged body with controlled internal relative humidity
Experimental: The water activity was measured with AquaLab Series 4TE (METER Group Inc.). A sample having a volume of about 5 ml in a sample dish was placed in AquaLab Series 4TE, and the water activity at 25° C. was measured.

[3] = stored 2 weeks at 40° C., 0.2 g in opened state in packaged body of controlled relative humidity (11% or 48%)

Row | QH residual rate (%) [1, 3] [%] | Water activity [2] | Compound | QH residual rate (%) ([1]; stored 4 weeks at 40° C. and relative humidity 75%, 0.2 g in sealed container, internal relative humidity 48%) | QH residual rate (%) ([1]; stored 2 weeks at 40° C. and relative humidity 75%, 0.2 g in sealed container, internal relative humidity 48%)
1 | 94.7 | 0.11 | co-crystal composed of QH and nicotinamide [Example 5] |  | 
2 |  |  | COc1c(O)c(C)c(C/C=C(\C)CC/C=C(\C)CC/C=C(\C)CC/C=C(\C)CC/C=C(\C)CC/C=C(\C)CC/C=C(\C)CC/C=C(\C)CC/C=C(\C)CCC=C(C)C)c(O)c1OC [Comparative Example 2, reduced coenzyme Q10] |  | 37.2
3 | 82.6 | 0.48 | co-crystal composed of QH and nicotinamide [Comparative Example 3] |  | 

Row | Compound | QH residual rate (%) [1, 3] [%] | Water activity [2] | QH residual rate (%) ([1]; stored 4 weeks at 40° C. and relative humidity 75%, 0.2 g in sealed container, internal relative humidity 48%) | QH residual rate (%) ([1]; stored 2 weeks at 40° C. and relative humidity 75%, 0.2 g in sealed container, internal relative humidity 48%)
4 | COc1c(O)c(C)c(C/C=C(\C)CC/C=C(\C)CC/C=C(\C)CC/C=C(\C)CC/C=C(\C)CC/C=C(\C)CC/C=C(\C)CC/C=C(\C)CC/C=C(\C)CCC=C(C)C)c(O)c1OC [Comparative Example 1, reduced coenzyme Q10] |  | 0.48 | 82.1 | 
